Here are results for nine compounds from patent US20040106635A1, “Spiroisoquinoline compound, a method for preparing the same and an intermediate thereof” (priority 2001, published 2004).

One assay deals with guinea pig. The experiment in a line: Evaluation of evacuation-promoting activity (fecal pellets after clonidine). In kind it is in vivo. Particulars: 15 min after clonidine 30 μg/kg i.p., minimum dose with more fecal pellets than control at one hour. On the procedure:
(Evaluation of Evacuation-Promoting Activity)
Male Hartley guinea pigs (Age: 4 to 5 weeks; n=6 to 10/group)
Each test drug was dissolved in distilled water. Hardly water-soluble test drugs were suspended in a 0.5% carboxymethyl cellulose solution. Dose of the test drug solution was 5 mL/kg.
Guinea pigs (2 animals/cage) were encaged and acclimatized for a few days prior to the examinations. Fifteen minutes after the administration of clonidine (30 μg/kg, i.p.), each test compound solution (5 mL/kg) was administered intraperitoneally or orally to the animals. One hour after the administration of the test compound, number of evacuated fecal pellets in each cage was measured and recorded. Effective dose of the test compound was determined as a minimum dose in which the number of evacuated fecal pellets was grater than that in control group (group of guinea pigs to which clonidine and vehicle of the test compound were administered d).

For assay [1], the target named is SK channel (specific binding of 125I-apamine to the membrane). The experiment in a line: Assay of 125I-apamine-binding inhibition (competitive binding to colon membrane fraction). The following applies: guinea pig colon membrane 10 μg/mL, 125I-apamin 10 pM, 4° C., 60 minutes; read-out: 125I-apamine-binding inhibitory activity (IC50; μM). On the procedure: (Assay of ^125I-Apamine-Binding Inhibition)
Male Hartley guinea pigs (Age: 4 weeks or more)
Each test drug was dissolved in a buffer (5 mM Tris-HCl, 5.4 mM KC1, 0.1% bovine serum albumin (BSA), pH 7.4; This buffer is hereinafter referred as buffer (3)). Hardly water-soluble test drugs were dissolved in dimethylsulfoxide followed by being diluted with buffer (3).
The experiments were carried out according to the method described by Hugues et al (Life Sciences 31, 437-443, 1982) and Catterall et al (Journal of Biochemistry 254, 11379-11387, 1979).
The colon was isolated from guinea pigs and mucosal cells were removed therefrom. The colon was homogenized together with a buffer solution (1)(40 mM Tris-HCl, 8% sucrose, pH 7.4) and the homogenate was centrifuged at 130,000 g for 60 minutes. The pellet was suspended in the buffer solution (1) and the suspension was layered on top of a discontinuous sucrose gradient composed of 33% sucrose and 40% sucrose. After centrifugation at 160,000 g for 90 minutes, the 8/33%-layer was collected and suspended in a buffer solution (2)(5 mM Tris-HCl, pH 7.4). The suspension was further centrifuged at 160,000 g for 60 minutes. The resultant pellet was suspended in buffer (3) at a final concentration of 500 μg of membrane protein per mL and used for binding assay (If necessary, this suspension was frozen and stored in a liquid nitrogen).
The membrane (10 μg/mL), ^125I-apamin (10 pM) and a test drug solution were added to the buffer (3) and the mixture was incubated at 4° C. for 60 minutes. After incubation, the mixture was filtered through cell-harvester and the radioactivity of ^125I-apamin retained by the filter was counted with a gamma-counter. The inhibitory activity (IC50) of the test drug on specific binding of ^125I-apamine to the membrane was calculated. The binding level of ^125I-apamine in the presence of large excess(100 nM) of apamine was defined as non-specific binding of ^125I-apamin.

Assay [2] deals with acetylcholinesterase (AChE) (Homo sapiens, UniProt P22303). Description: Inhibitory activity on acetylcholinesterase (AChE), Ellman method. In kind it is biochemical. The following applies: 25° C., pH 7.4, in the presence of 1% BSA, absorbance at 412 nm. On the procedure:
(Inhibitory Activity on acetylcholinesterase (AChE))
Each test drug was dissolved in distilled water containing 0.1% BSA (pH 7.4). Hardly water-soluble test drugs were dissolved in dimethylsulfoxide followed by being diluted with distilled water containing 0.1% BSA (pH 7.4).
Measurements of AChE activity were carried out according to the method described by Ellman et al (Biochem Pharmacol 7, 88-95, 1961). A solution of 12 mM 5,5,-dithiobis-(2-nitrobenzoic acid) (50 μL; final concentration: 0.3 mM), a solution of AChE (2-4 U/mL; 50 μL) and a test drug solution (50 μL) were added, in this order, to 110 mM phosphate buffer (1.8 mL; final concentration: 100 mM; pH 7.4) and the mixture was incubated for a predetermined period (3 to 60 minutes) at 25° C. After incubation, a solution of 20 mM acetylthiocholin iodide (50 μL; final concentration: 0.5 mM) was added to the mixture. Immediately after stirring the mixture, absorbance at 412 nm of the reaction mixture was measured. In terms of change in the absorbance per unit time (z,900 E/min), the AChE-inhibitory activity of the test drug (IC50) was calculated. Concomitantly, the measurements of the present experiment were carried out in the presence of 1% BSA.

Sequence of acetylcholinesterase (AChE) (P22303 32-614, species assumed): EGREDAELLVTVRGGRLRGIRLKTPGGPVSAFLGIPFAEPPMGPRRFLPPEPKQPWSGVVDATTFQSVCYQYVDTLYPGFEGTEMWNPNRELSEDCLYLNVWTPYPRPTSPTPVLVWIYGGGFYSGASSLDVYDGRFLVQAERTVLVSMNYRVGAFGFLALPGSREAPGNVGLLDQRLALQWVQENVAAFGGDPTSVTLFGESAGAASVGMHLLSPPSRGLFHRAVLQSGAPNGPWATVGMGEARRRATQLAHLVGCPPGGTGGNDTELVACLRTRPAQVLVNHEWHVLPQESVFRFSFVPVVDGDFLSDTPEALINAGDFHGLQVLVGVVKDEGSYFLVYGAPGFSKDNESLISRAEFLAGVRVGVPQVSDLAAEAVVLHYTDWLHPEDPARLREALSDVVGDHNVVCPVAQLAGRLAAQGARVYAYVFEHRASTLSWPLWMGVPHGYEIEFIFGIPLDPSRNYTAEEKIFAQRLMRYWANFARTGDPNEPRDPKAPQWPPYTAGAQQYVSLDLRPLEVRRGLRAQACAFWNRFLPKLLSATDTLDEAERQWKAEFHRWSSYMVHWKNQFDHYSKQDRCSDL

As for `CCC(=O)OCOC(=O)N(C)CCC(=O)N1CCc2cc(OC)c(OC)cc2[C@]12CC[C@@H](C(=O)N1CCN(c3ncnc4c3cnn4Cc3ccncc3)CC1)C[C@@H]2C1c2cc(OC)c(OC)cc2CCN1CC` (relative stereo) [313 (1), (1R*,2R*(S*),4R*)-2′-[3-[N-(propionyloxymethyloxycarbonyl)-N-methylamino]propionyl]-3′,4′-dihydro-6′,7′-dimethoxy-2-(2-ethyl-1,2,3,4-tetrahydro-6,7-dimethoxy-1-isoquinolyl)-4-[4-[1-(4-pyridylmethyl)-1H-pyrazolo[3,4-d]pyrimidin-4-yl]-1-piperazinyl]carbonyl-spiro[cyclohexane-1,1′(2′H)-isoquinoline]], the “Evacuation-promoting activity in guine pig (Effective dose: mg/kg p.o.)” value in the assay on guinea pig stood at 0.1 mg/kg.

In the case of `CCN1CCc2cc(OC)c(OC)cc2C1C1CC(C(=O)N2CCN(c3ncnc4c3nnn4C)CC2)CCC12c1cc(OC)c(OC)cc1CCN2C(=O)CCNC` (stereo not drawn) [Example 241(2)], in assay [1], the half-inhibitory concentration (IC50) – broadly, the concentration at which inhibition is half-maximal – came out at 0.01 µM. Further, in the assay with guinea pig, the “Evacuation-promoting activity in guinea pig (Effective dose: mg/kg i.p.)” value is recorded as 0.03 mg/kg.

Consider `CCN1CCc2cc(OC)c(OC)cc2C1[C@H]1C[C@H](C(=O)N2CCN(c3ncnc4c3nnn4C)CC2)CC[C@]12c1cc(OC)c(OC)cc1CCN2C(=O)CCN(C)C(=O)OCOC(=O)C(C)(C)C` (relative stereo) [315 (2), (1R*,2R*(S*),4R*)-2′-[3-[N-(pivaloyloxy-methyloxycarbonyl)-N-methylamino]propionyl]-3′,4′-dihydro-6′,7′-dimethoxy-2-(2-ethyl-1,2,3,4-tetrahydro-6,7-dimethoxy-1-isoquinolyl)-4-[4-[3-methyl-3H-1,2,3-triazolo[4,5-d]pyrimidin-7-yl]-1-piperazinyl]carbonyl-spiro[cyclohexane-1,1′(2′H)-isoquinoline]], for which the “Evacuation-promoting activity in guine pig (Effective dose: mg/kg p.o.)” value in the assay with guinea pig was determined as 0.3 mg/kg.

Regarding `CCN1CCc2cc(OC)c(OC)cc2[C@@H]1[C@H]1C[C@H](C(=O)N2CCN(c3ncnc4c3cnn4Cc3ccncc3)CC2)CC[C@]12c1cc(OC)c(OC)cc1CCN2C(=O)CCNC` (racemic) [Example 165(2), (1R*,2R*(S),4R)-2′-[3-(methylamino)propionyl]-3′,4′-dihydro-6′,7′-dimethoxy-2-(2-ethyl-1,2,3,4-tetrahydro-6,7-dimethoxy-1-isoquinolyl)-4-[4-[1-(4-pyridylmethyl)-1H-pyrazolo[3,4-d]pyrimidin-4-yl]-1-piperazinyl]carbonyl-spiro[cyclohexane-1,1′(2′H)-isoquinoline]], the half-maximal inhibitory concentration (IC50) was 0.05 µM in assay [1] and 0.002 µM in assay [2]. Besides, in the assay on guinea pig, the “Evacuation-promoting activity in guinea pig (Effective dose: mg/kg i.p.)” value is on record as 0.01 mg/kg.

Consider `CCC(=O)OCOC(=O)N(C)CCC(=O)N1CCc2cc(OC)c(OC)cc2[C@]12CC[C@@H](C(=O)N1CCN(c3ncnc4c3cnn4Cc3ccncc3)CC1)C[C@@H]2C1c2cc(OC)c(OC)cc2CCN1CC` (relative stereo) [313 (2), (1R*,2R*(S*),4R*)-2′-[3-[N-(propionyloxymethyloxycarbonyl)-N-methylamino]propionyl]-3′,4′-dihydro-6′,7′-dimethoxy-2-(2-ethyl-1,2,3,4-tetrahydro-6,7-dimethoxy-1-isoquinolyl)-4-[4-[1-(4-pyridylmethyl)-1H-pyrazolo[3,4-d]pyrimidin-4-yl]-1-piperazinyl]carbonyl-spiro[cyclohexane-1,1′(2′H)-isoquinoline]], for which the “Evacuation-promoting activity in guine pig (Effective dose: mg/kg p.o.)” value with guinea pig was 0.1 mg/kg.

With `CCCn1ncc2c(N3CCN(C(=O)[C@@H]4CC[C@]5(c6cc(OC)c(OC)cc6CCN5C(=O)CCN(C)C(=O)c5ccccc5COC(=O)c5ccccc5)[C@@H](C5c6cc(OC)c(OC)cc6CCN5CC)C4)CC3)ncnc21` (relative stereo) [386 (2), (1R*,2R*(S*),4R*)-2′-[3-[N-(2-benzoyloxymethylbenzoyl)-N-methylamino]-propionyl]-3′,4′-dihydro-6′,7′-dimethoxy-2-(2-ethyl-1,2,3,4-tetrahydro-6,7-dimethoxy-1-isoquinolyl)-4-[4-[1-propyl-1H-pyrazolo[3,4-d]pyrimidin-4-yl]-1-piperazinyl]carbonyl-spiro[cyclohexane-1,1′(2′H)-isoquinoline]], the “Evacuation-promoting activity in guine pig (Effective dose: mg/kg p.o.)” value with guinea pig is listed as 1 mg/kg.

On to `COc1cc2c(cc1OC)C1(CCC(C(=O)N3CCN(c4ncnc5c4cnn5Cc4ccccn4)CC3)CC1)N(CCCN)CC2` (stereo not drawn) [282 (2)], for which the IC50 in assay [1] was found to be 0.02 µM.

Consider `CNCCCCN1CCc2cc(OC)c(OC)cc2C12CCC(C(=O)N1CCN(c3ncnc4c3cnn4Cc3ccccc3Cl)CC1)CC2` (stereo not drawn) [295 (4), (1α,4β)-2′-[4-(methylamino)butyl]-3′,4′-dihydro-6′,7′-dimethoxy-4-[4-[1-(2-chlorophenylmethyl)-1H-pyrazolo[3,4-d]pyrimidin-4-yl]-1-piperazinyl]carbonyl-spiro[cyclohexane-1,1′(2′H)-isoquinoline]], for which the IC50 in assay [2] came out at 0.02 µM.

As for `CCCn1ncc2c(N3CCN(C(=O)C4CCC5(c6cc(OC)c(OC)cc6CCN5C(=O)CCNC)C(C5c6cc(OC)c(OC)cc6CCN5CC)C4)CC3)ncnc21` (stereo not drawn) [Example 236(2)], in assay [1], the half-inhibitory concentration (IC50) is 0.06 µM.
